The source of these data is ChEMBL document CHEMBL2434941, “Synthesis of conformationally constrained γ-D-glutamyl-meso-diaminopimelic acid derivatives as ligands of nucleotide-binding oligomerization domain protein 1 (Nod1)” (Eur J Med Chem, 2013).

Active and inactive are the calls of the source. The calls are words filed in the database; no cut-off is given here.

The subject of assay [1] is PBMC. Kind of assay: Immunomodulatory activity in human PBMC assessed as increase in LPS-induced TNF-alpha production at 10 uM after 24 hrs by flow cytometric analysis. The class given is functional, cell-based.
Assay [2] deals with PBMC. Kind of assay: Immunomodulatory activity in human PBMC assessed as increase in LPS-induced IL-10 production at 10 uM after 24 hrs by flow cytometric analysis. The class given is functional, cell-based.
Assay [3] concerns PBMC. Kind of assay: Immunomodulatory activity in human PBMC assessed as increase in IL-12p70 production at 10 uM after 24 hrs by flow cytometric analysis. The class given is functional, cell-based.
Assay [4] relates to PBMC. The experiment in a line: Immunomodulatory activity in human PBMC assessed as increase in TNF-alpha production at 10 uM after 24 hrs by flow cytometric analysis. The class given is functional, cell-based.
Assay [5] addresses T1, Nucleotide-binding oligomerization domain-containing protein 1 (Homo sapiens) (UniProt Q9Y239).
T1 sequence (whole entry): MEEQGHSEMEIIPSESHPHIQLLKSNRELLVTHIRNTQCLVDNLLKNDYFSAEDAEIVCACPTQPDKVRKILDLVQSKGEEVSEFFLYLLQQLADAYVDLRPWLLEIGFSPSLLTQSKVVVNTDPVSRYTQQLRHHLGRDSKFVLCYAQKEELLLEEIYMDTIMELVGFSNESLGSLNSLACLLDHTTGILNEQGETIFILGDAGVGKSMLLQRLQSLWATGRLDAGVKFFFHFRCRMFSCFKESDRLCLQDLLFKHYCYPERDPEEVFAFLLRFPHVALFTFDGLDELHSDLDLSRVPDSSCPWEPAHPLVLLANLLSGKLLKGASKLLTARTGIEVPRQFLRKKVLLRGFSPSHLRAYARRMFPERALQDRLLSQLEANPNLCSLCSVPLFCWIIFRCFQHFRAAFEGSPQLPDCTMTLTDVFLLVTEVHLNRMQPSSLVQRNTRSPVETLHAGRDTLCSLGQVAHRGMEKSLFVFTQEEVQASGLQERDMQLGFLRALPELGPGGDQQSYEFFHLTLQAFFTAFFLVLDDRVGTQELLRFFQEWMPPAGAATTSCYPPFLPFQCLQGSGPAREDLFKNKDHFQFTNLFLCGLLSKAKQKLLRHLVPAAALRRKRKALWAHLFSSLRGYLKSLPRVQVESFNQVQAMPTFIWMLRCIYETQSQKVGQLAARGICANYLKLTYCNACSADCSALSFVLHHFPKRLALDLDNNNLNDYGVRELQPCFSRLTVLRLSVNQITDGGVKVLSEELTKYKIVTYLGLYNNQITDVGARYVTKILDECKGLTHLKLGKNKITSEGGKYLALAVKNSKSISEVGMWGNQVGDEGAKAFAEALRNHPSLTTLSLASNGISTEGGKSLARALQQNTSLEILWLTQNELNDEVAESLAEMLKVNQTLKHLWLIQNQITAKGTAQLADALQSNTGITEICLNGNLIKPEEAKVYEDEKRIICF
The experiment in a line: Agonist activity at human Nod1 expressed in human Ramos cells assessed as reduction of NF-kappaB transcriptional activity at 10 uM after 24 hrs by SEAP reporter gene assay in presence of nod1 antagonist noditinib-1. The class given is cell-based.

The test system of assay [6] is PBMC. Kind of assay: Immunomodulatory activity in human PBMC assessed as increase in LPS-induced IL-8 production at 10 uM after 24 hrs by flow cytometric analysis. The class given is functional, cell-based.
Assay [7] relates to PBMC. The experiment in a line: Immunomodulatory activity in human PBMC assessed as increase in IL-8 production at 10 uM after 24 hrs by flow cytometric analysis. The class given is functional, cell-based.
Assay [8] deals with T1, Nucleotide-binding oligomerization domain-containing protein 1 (Homo sapiens). Kind of assay: Agonist activity at human Nod1 expressed in human Ramos-Blue cells assessed as increase in NF-kappaB transcriptional activity at 10 uM after 24 hrs by SEAP reporter gene assay. The class given is cell-based.
For assay [9], the system named is PBMC. The experiment in a line: Immunomodulatory activity in human PBMC assessed as increase in IL-6 production at 10 uM after 24 hrs by flow cytometric analysis. The class given is functional, cell-based.
The subject of assay [10] is PBMC. The experiment in a line: Immunomodulatory activity in human PBMC assessed as increase in LPS-induced IL-1beta production at 10 uM after 24 hrs by flow cytometric analysis. The class given is functional, cell-based.
For assay [11], the system named is PBMC. The experiment in a line: Immunomodulatory activity in human PBMC assessed as increase in IL-1beta production at 10 uM after 24 hrs by flow cytometric analysis. The class given is functional, cell-based.
In assay [12] the test system is PBMC. The experiment in a line: Immunomodulatory activity in human PBMC assessed as increase in LPS-induced IL-12p70 production at 10 uM after 24 hrs by flow cytometric analysis. The class given is functional, cell-based.
For assay [13], the system named is PBMC. The experiment in a line: Immunomodulatory activity in human PBMC assessed as increase in IL-10 production at 10 uM after 24 hrs by flow cytometric analysis. The class given is functional, cell-based.
Assay [14] concerns PBMC. The experiment in a line: Immunomodulatory activity in human PBMC assessed as increase in LPS-induced IL-6 production at 10 uM after 24 hrs by flow cytometric analysis. The class given is functional, cell-based.

For `CCCCCCCCCCCCN(CCCCCCCCCCCC)[C@H](CCC(=O)N[C@@H](/C=C/C[C@@H](N)C(=O)O)C(=O)O)C(=O)O`, the outcome in the assay on PBMC [1], in the assay with PBMC [3], in the assay on PBMC [6], in the assay on PBMC [10] and in the assay with PBMC [12] was inactive. The outcome (in the assay on PBMC [2]; with PBMC [4]; in assay [5]; with PBMC [7]; in [8]; with PBMC [9]) was Active. For the same compound, the outcome in the assay on PBMC [11], in the assay with PBMC [13] and in the assay with PBMC [14] was Active.
For `CCCCCCCCCCCC(=O)N[C@H](CCC(=O)N[C@@H](CCC[C@@H](N)C(=O)O)C(=O)O)C(=O)O`, the result (in the assay with PBMC [1]; in the assay with PBMC [2]; in the assay on PBMC [4]; in assay [5]; in the assay on PBMC [7]; in assay [8]) was Active. The outcome in the assay with PBMC [9], with PBMC [11], in the assay with PBMC [13] and in the assay on PBMC [14] was Active. For the same compound, the result in the assay on PBMC [3], in the assay with PBMC [6], in the assay on PBMC [10] and in the assay with PBMC [12] was inactive.
As to `CCCCCCCCCCCC(=O)N[C@H](CCC(=O)N[C@@H](/C=C/C[C@@H](N)C(=O)O)C(=O)O)C(=O)O`, the outcome with PBMC [1], in the assay on PBMC [3], in the assay with PBMC [6], in the assay with PBMC [10] and with PBMC [12] was inactive. Moreover, the outcome (with PBMC [2]; in the assay on PBMC [4]; in [5]; with PBMC [7]; in assay [8]; with PBMC [9]) was Active. Also, the outcome in the assay with PBMC [11], with PBMC [13] and with PBMC [14] was Active.
In the case of `CCCCCCCCCCCCN(CCCCCCCCCCCC)[C@H](CCC(=O)N[C@@H](C/C=C/[C@@H](N)C(=O)O)C(=O)O)C(=O)O`, the outcome in the assay with PBMC [1], in the assay on PBMC [2], in the assay on PBMC [3], in the assay on PBMC [6], in the assay with PBMC [10] and in the assay with PBMC [12] was inactive. Also, the outcome (in the assay on PBMC [4]; in assay [5]; in the assay on PBMC [7]; in [8]; with PBMC [9]; in the assay on PBMC [11]) was Active. Also, the outcome in the assay on PBMC [13] and in the assay with PBMC [14] was Active.
Take `CCCCCCCCCCCC(=O)N[C@H](CCC(=O)N[C@@H](C/C=C/[C@@H](N)C(=O)O)C(=O)O)C(=O)O`: the result (with PBMC [1]; with PBMC [2]; in the assay with PBMC [4]; in assay [5]; in the assay with PBMC [7]; in [8]) was Active. Besides, the outcome in the assay with PBMC [9], with PBMC [11], in the assay with PBMC [13] and in the assay with PBMC [14] was Active. For the same compound, the outcome in the assay on PBMC [3], in the assay on PBMC [6], in the assay on PBMC [10] and in the assay with PBMC [12] was inactive.
